Series [1] deals with Saccharomyces cerevisiae. Put plainly: Inhibition of yeast alpha-glucosidase assessed as residual hydrolytic activity up to 2 mM after 10 to 30 mins by spectrophotometric analysis.
A further series deals with T1, Alpha-mannosidase (Canavalia ensiformis, UniProt C0HJB3).
T1 sequence (C0HJB3 whole entry): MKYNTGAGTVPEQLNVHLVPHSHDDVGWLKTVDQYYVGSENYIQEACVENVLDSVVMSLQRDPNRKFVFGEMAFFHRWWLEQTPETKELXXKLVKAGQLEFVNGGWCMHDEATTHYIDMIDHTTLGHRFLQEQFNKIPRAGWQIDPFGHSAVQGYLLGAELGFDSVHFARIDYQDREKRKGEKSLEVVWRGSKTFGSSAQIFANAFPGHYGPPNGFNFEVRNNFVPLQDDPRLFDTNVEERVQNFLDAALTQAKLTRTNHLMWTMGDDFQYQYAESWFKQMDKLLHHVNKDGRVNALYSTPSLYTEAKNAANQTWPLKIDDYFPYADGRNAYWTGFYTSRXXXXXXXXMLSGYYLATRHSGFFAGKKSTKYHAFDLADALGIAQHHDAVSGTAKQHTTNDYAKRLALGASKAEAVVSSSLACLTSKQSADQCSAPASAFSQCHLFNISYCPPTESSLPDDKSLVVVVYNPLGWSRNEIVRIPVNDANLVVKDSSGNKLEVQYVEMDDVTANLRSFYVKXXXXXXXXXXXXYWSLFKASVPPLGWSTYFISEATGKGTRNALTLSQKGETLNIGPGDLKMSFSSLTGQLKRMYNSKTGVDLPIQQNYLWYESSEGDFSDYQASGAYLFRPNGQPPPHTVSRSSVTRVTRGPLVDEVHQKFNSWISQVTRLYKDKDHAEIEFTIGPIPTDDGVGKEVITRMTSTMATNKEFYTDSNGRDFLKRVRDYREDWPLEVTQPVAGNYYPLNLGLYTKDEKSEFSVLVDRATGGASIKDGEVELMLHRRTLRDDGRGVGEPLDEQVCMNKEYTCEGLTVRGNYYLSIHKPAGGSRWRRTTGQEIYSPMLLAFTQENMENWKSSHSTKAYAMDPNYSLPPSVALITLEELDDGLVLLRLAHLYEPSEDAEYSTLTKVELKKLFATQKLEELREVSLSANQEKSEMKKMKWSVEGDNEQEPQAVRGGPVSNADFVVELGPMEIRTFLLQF
Description: Inhibition of jack bean Lysosomal alpha-mannosidase assessed as residual hydrolytic activity after 10 to 30 mins by spectrophotometric analysis.

For series [2], the target named is T2, Lysosomal alpha-mannosidase (Homo sapiens) (UniProt O00754).
T2 sequence (whole entry): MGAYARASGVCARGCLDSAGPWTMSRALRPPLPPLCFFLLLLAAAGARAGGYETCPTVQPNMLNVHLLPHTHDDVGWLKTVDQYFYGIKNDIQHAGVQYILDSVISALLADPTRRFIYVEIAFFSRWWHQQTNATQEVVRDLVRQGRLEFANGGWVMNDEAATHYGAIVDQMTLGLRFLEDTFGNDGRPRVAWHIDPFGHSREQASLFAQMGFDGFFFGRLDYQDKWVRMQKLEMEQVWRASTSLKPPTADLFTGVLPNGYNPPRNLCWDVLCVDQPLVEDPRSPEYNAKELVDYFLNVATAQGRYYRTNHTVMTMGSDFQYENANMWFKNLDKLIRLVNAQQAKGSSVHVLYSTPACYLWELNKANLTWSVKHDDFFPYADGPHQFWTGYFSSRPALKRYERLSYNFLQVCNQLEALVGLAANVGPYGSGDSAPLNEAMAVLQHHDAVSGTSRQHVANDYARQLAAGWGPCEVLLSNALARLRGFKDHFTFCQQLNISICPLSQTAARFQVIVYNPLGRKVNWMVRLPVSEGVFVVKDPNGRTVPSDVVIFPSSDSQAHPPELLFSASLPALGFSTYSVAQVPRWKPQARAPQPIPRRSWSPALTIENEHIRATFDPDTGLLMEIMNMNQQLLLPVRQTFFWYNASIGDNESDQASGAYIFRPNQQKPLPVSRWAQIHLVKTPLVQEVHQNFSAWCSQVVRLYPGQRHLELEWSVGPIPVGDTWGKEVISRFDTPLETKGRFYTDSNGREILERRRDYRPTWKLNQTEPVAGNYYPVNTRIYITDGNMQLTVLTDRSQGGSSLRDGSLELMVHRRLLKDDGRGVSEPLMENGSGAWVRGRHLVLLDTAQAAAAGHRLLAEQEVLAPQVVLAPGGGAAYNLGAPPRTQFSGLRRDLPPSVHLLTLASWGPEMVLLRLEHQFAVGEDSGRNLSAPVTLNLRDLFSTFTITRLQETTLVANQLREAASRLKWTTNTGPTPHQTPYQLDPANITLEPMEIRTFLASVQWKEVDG
Put plainly: Chaperone activity at Lysosomal alpha-mannosidase in wild-type human fibroblasts assessed as increase in Lysosomal alpha-mannosidase activity at 0.2 to 20 uM using 4-methylumbelliferone alpha-D-mannopyranoside as a reporter substrate incubated for 4 days by fluorescence method relative to control.

Series [3] is described as follows: Solubility in glycin-NaOH buffer at pH 10.7. It counts as physicochemical.
Series [4] has as its target Alpha-galactosidase (Coffea arabica) (UniProt Q42656). Description: Inhibition of green coffee alpha-galactosidase assessed as residual hydrolytic activity up to 2 mM after 10 to 30 mins by spectrophotometric analysis.
A further series relates to Helix pomatia. Description: Inhibition of Helix pomatia beta-mannosidase assessed as residual hydrolytic activity up to 2 mM after 10 to 30 mins by spectrophotometric analysis.
A short description of series [5]: Inhibition of bovine liver beta-glucosidase assessed as residual hydrolytic activity after 10 to 30 mins by spectrophotometric analysis. Details: species or system Bos taurus.
Another series relates to Aspergillus niger. Description: Inhibition of Aspergillus niger amyloglucosidase assessed as residual hydrolytic activity up to 2 mM after 10 to 30 mins by spectrophotometric analysis.
Series [6] relates to Saccharomyces cerevisiae. Put plainly: Inhibition of yeast isomaltase assessed as residual hydrolytic activity up to 2 mM after 10 to 30 mins by spectrophotometric analysis.

The results in this text go back to ChEMBL document CHEMBL4396870, “Pharmacological Chaperones for the Treatment of α-Mannosidosis” (J Med Chem, 2019).

The source made the active and inactive calls. The calls are words filed in the database; no cut-off is given here.

Chain of Alpha-galactosidase (Coffea arabica) (Q42656 16-378 limits assumed): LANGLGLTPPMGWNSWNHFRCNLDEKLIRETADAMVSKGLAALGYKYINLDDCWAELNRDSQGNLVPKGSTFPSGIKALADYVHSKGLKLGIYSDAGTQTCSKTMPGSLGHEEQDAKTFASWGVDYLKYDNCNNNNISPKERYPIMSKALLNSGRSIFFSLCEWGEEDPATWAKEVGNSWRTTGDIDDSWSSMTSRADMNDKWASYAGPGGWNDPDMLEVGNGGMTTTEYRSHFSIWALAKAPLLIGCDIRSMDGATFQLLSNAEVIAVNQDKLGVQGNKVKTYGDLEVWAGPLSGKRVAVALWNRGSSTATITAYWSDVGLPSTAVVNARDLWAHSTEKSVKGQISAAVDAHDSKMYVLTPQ

What is called Ki is a measure of affinity in units of concentration, obtained from inhibition or displacement. On to `CC(C)(C)OC(=O)NCCCCCCCCCN[C@@H]1[C@@H](O)[C@@H](O)[C@H](O)[C@H]2COC(=O)N21`, for which the inhibition entry (in the series with Saccharomyces cerevisiae [1]; in series [4]; in the series with Helix pomatia; in the series on Aspergillus niger; with Saccharomyces cerevisiae [6]) was “inactive” throughout. Moreover, the Ki at Alpha-mannosidase lay in the range of 0.5 to 50 µM; in [5], 140 to 300 µM. Further, in series [2], the fold change (FC) lay within 1.3 to 2.4. In addition, in [3], the solubility entry was “Soluble”.
On to `CO[C@@H]1[C@@H](OC)[C@H]2O[C@H]3[C@H](OC)[C@@H](OC)[C@@H](O[C@H]4[C@H](OC)[C@@H](OC)[C@@H](O[C@H]5[C@H](OC)[C@@H](OC)[C@@H](O[C@H]6[C@H](OC)[C@@H](OC)[C@@H](O[C@H]7[C@H](OC)[C@@H](OC)[C@@H](O[C@H]8[C@H](OC)[C@@H](OC)[C@@H](O[C@@H]1[C@@H](COCc1cn(CCCCCCN[C@@H]9[C@@H](O)[C@@H](O)[C@H](O)[C@H]%10COC(=O)N%109)nn1)O2)O[C@@H]8COCc1cn(CCCCCCN[C@@H]2[C@@H](O)[C@@H](O)[C@H](O)[C@H]8COC(=O)N82)nn1)O[C@@H]7COCc1cn(CCCCCCN[C@@H]2[C@@H](O)[C@@H](O)[C@H](O)[C@H]7COC(=O)N72)nn1)O[C@@H]6COCc1cn(CCCCCCN[C@@H]2[C@@H](O)[C@@H](O)[C@H](O)[C@H]6COC(=O)N62)nn1)O[C@@H]5COCc1cn(CCCCCCN[C@@H]2[C@@H](O)[C@@H](O)[C@H](O)[C@H]5COC(=O)N52)nn1)O[C@@H]4COCc1cn(CCCCCCN[C@@H]2[C@@H](O)[C@@H](O)[C@H](O)[C@H]4COC(=O)N42)nn1)O[C@@H]3COCc1cn(CCCCCCN[C@@H]2[C@@H](O)[C@@H](O)[C@H](O)[C@H]3COC(=O)N32)nn1`, for which the inhibition entry (with Saccharomyces cerevisiae [1]; in [4]; with Helix pomatia; with Aspergillus niger; in the series with Saccharomyces cerevisiae [6]) was “inactive” each time. The values for the Ki (at Alpha-mannosidase; in [5]) were 0.5 to 50 µM and 140 to 300 µM, respectively. Besides, in [3], the solubility entry was “Soluble”.
In the case of `[N-]=[N+]=NCCCCCCCCCN[C@@H]1[C@@H](O)[C@@H](O)[C@H](O)[C@H]2COC(=O)N21`, the inhibition result (with Saccharomyces cerevisiae [1]; in series [4]; in the series with Helix pomatia; with Aspergillus niger; in the series with Saccharomyces cerevisiae [6]) was “inactive” in each case. Besides, the values for the Ki (on Alpha-mannosidase; in series [5]) were 0.5 to 50 µM and 140 to 300 µM, respectively. Further, the fold change (FC) in series [2] fell in the range of 1.3 to 2.4. Besides, the solubility entry in [3] was “Soluble”.
In the case of `[N-]=[N+]=NCCCCCCN[C@@H]1[C@@H](O)[C@@H](O)[C@H](O)[C@H]2COC(=O)N21`, the inhibition entry (in the series on Saccharomyces cerevisiae [1]; in series [4]; with Helix pomatia; with Aspergillus niger; in the series with Saccharomyces cerevisiae [6]) was “inactive” each time. Further, the Ki on Alpha-mannosidase lay within 0.5 to 50 µM; in series [5], 140 to 300 µM. Further, the fold change (FC) in series [2] is 1.3 to 2.4. Further, in series [3], the solubility entry is recorded as “Soluble”.
With `CCCCCCCCN[C@@H]1[C@@H](O)[C@@H](O)[C@H](O)[C@H]2COC(=O)N21`, the results for the Ki (at Alpha-mannosidase; in series [5]) were 3.2 µM and 260 µM, respectively. Also, the fold change (FC) in series [2] was in the range of 1.3 to 2.4. Further, the solubility result in series [3] is given as “Soluble”.
As for `COC[C@H]1O[C@@H]2O[C@H]3[C@H](OC)[C@@H](OC)[C@@H](O[C@H]4[C@H](OC)[C@@H](OC)[C@@H](O[C@H]5[C@H](OC)[C@@H](OC)[C@@H](O[C@H]6[C@H](OC)[C@@H](OC)[C@@H](O[C@H]7[C@H](OC)[C@@H](OC)[C@@H](O[C@H]8[C@H](OC)[C@@H](OC)[C@@H](O[C@H]1[C@H](OC)[C@H]2OC)O[C@@H]8COC)O[C@@H]7COC)O[C@@H]6COC)O[C@@H]5COCc1cn(CCCCCCN[C@@H]2[C@@H](O)[C@@H](O)[C@H](O)[C@H]5COC(=O)N52)nn1)O[C@@H]4COC)O[C@@H]3COC`, the inhibition result (in the series on Saccharomyces cerevisiae [1]; in series [4]; with Helix pomatia; with Aspergillus niger; in the series with Saccharomyces cerevisiae [6]) was “inactive” in each case. In addition, the Ki was 0.5 to 50 µM at Alpha-mannosidase and 140 to 300 µM in [5]. In addition, the fold change (FC) in [2] is 1.3 to 2.4. In addition, the solubility entry in series [3] is listed as “Soluble”.
For the molecule `CCCc1cn(CCCCCCN[C@@H]2[C@@H](O)[C@@H](O)[C@H](O)[C@H]3COC(=O)N32)nn1`, the inhibition result (with Saccharomyces cerevisiae [1]; in [4]; with Helix pomatia; in the series on Aspergillus niger; with Saccharomyces cerevisiae [6]) was “inactive” each time. Also, the Ki lay in the range of 0.5 to 50 µM at Alpha-mannosidase and 140 to 300 µM in series [5]. Also, in series [2], the fold change (FC) fell in the range of 1.3 to 2.4. In [3], the solubility result was “Soluble”.
